Test results from ChEMBL document CHEMBL1909294, “Translating clinical findings into knowledge in drug safety evaluation--drug induced liver injury prediction system (DILIps)” (PLoS Comput Biol, 2011).

How the values were obtained:
[1] = test system: Hepatotoxicity;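 on HepSE bilirubinemia: bilirubinemia hepatic side effect score drawn from the DILIps training data, a prediction system for drug-induced liver injury; call rule not given here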;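 on HepSE cholecystitis: Cholecystitis-related hepatic side effect score drawn from the DILIps (drug-induced liver injury prediction) training data set; call rule not given here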;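 on HepSE cholelithiasis: hepatic side effect score for cholelithiasis, drawn from the DILIps training data for predicting drug-induced liver injury; call rule not given here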;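 on HepSE cirrhosis: cirrhosis hepatic side effect score taken from the DILIps (drug-induced liver injury prediction) training set; call rule not given here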;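 on HepSE elevated liver function tests: hepatic side effect score for raised liver function tests, as recorded in the DILIps training set used for predicting drug-induced liver injury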; on HepSE hepatic failure: call rule not given here;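 on HepSE hepatomegaly: hepatic side effect score for hepatomegaly, taken from the training set of the DILIps drug-induced liver injury prediction system; call rule not given here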
[2] = test system: Hepatotoxicity; remark: listed apart in the source;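 on HepSE bilirubinemia: bilirubinemia hepatic side effect score drawn from the DILIps training data, a prediction system for drug-induced liver injury; call rule not given here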;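 on HepSE cholecystitis: Cholecystitis-related hepatic side effect score drawn from the DILIps (drug-induced liver injury prediction) training data set; call rule not given here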;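 on HepSE cholelithiasis: hepatic side effect score for cholelithiasis, drawn from the DILIps training data for predicting drug-induced liver injury; call rule not given here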;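 on HepSE cirrhosis: cirrhosis hepatic side effect score taken from the DILIps (drug-induced liver injury prediction) training set; call rule not given here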;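 on HepSE elevated liver function tests: hepatic side effect score for raised liver function tests, as recorded in the DILIps training set used for predicting drug-induced liver injury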; on HepSE hepatic failure: call rule not given here;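 on HepSE hepatomegaly: hepatic side effect score for hepatomegaly, taken from the training set of the DILIps drug-induced liver injury prediction system; call rule not given here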
[3] = test system: Hepatotoxicity; remark: listed apart in the source;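 on HepSE bilirubinemia: bilirubinemia hepatic side effect score drawn from the DILIps training data, a prediction system for drug-induced liver injury; call rule not given here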;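 on HepSE cholecystitis: Cholecystitis-related hepatic side effect score drawn from the DILIps (drug-induced liver injury prediction) training data set; call rule not given here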;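 on HepSE cholelithiasis: hepatic side effect score for cholelithiasis, drawn from the DILIps training data for predicting drug-induced liver injury; call rule not given here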;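 on HepSE cirrhosis: cirrhosis hepatic side effect score taken from the DILIps (drug-induced liver injury prediction) training set; call rule not given here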;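 on HepSE elevated liver function tests: hepatic side effect score for raised liver function tests, as recorded in the DILIps training set used for predicting drug-induced liver injury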; on HepSE hepatic failure: call rule not given here
[4] = test system: Hepatotoxicity; remark: listed apart in the source;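 on HepSE bilirubinemia: bilirubinemia hepatic side effect score drawn from the DILIps training data, a prediction system for drug-induced liver injury; call rule not given here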;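 on HepSE cholecystitis: Cholecystitis-related hepatic side effect score drawn from the DILIps (drug-induced liver injury prediction) training data set; call rule not given here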;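 on HepSE cholelithiasis: hepatic side effect score for cholelithiasis, drawn from the DILIps training data for predicting drug-induced liver injury; call rule not given here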;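 on HepSE cirrhosis: cirrhosis hepatic side effect score taken from the DILIps (drug-induced liver injury prediction) training set; call rule not given here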;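 on HepSE elevated liver function tests: hepatic side effect score for raised liver function tests, as recorded in the DILIps training set used for predicting drug-induced liver injury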; on HepSE hepatic failure: call rule not given here
[5] = test system: Hepatotoxicity; remark: listed apart in the source; on HepSE hepatic failure: call rule not given here
[6] = test system: Hepatotoxicity; remark: listed apart in the source; on HepSE hepatic failure: call rule not given here
[7] = test system: Hepatotoxicity; remark: listed apart in the source
[8] = test system: Hepatotoxicity; remark: listed apart in the source
[9] = test system: Hepatotoxicity; remark: listed apart in the source
[10] = test system: Hepatotoxicity; remark: listed apart in the source
[11] = test system: Hepatotoxicity; remark: listed apart in the source
[12] = test system: Hepatotoxicity; remark: listed apart in the source
[13] = test system: Hepatotoxicity; remark: listed apart in the source
[14] = test system: Hepatotoxicity; remark: listed apart in the source

Row | Structure (SMILES) | HepSE_bilirubinemia [1] | HepSE_cholecystitis [2] | HepSE_cholelithiasis [3] | HepSE_cirrhosis [4] | HepSE_elevated liver function tests [5] | HepSE_hepatic failure [6] | HepSE_hepatic necrosis [7] | HepSE_hepatitis [8] | HepSE_hepatomegaly [9] | HepSE_jaundice [10] | HepSE_liver disease [11] | HepSE_liver fatty [12] | HepSE_liver function tests abnormal [13] | HepSE_Combined Scores [14] | further results
1 | CN(C)[C@@H]1C(O)=C(C(N)=O)C(=O)[C@@]2(O)C(O)=C3C(=O)c4c(O)cccc4[C@@](C)(O)[C@H]3[C@H](O)[C@@H]12 [OXYTETRACYCLINE] | 0 | 0 | 0 | 0 | 0 | 0 | 0 | 0 | 0 | 0 | 0 | 0 | 0 | 0 | 
2 | CC[C@H](C)[C@@H]1NC(=O)[C@H](Cc2ccc(O)cc2)NC(=O)[C@@H](N)CSSC[C@@H](C(=O)N2CCC[C@H]2C(=O)N[C@@H](CC(C)C)C(=O)NCC(N)=O)NC(=O)[C@H](CC(N)=O)NC(=O)[C@H](CCC(N)=O)NC1=O [OXYTOCIN] | 0 | 0 | 0 | 0 | 0 | 0 | 0 | 0 | 0 | 0 | 0 | 0 | 0 | 0 | 
3 | CC(=O)O[C@H]1C(=O)[C@@]2(C)[C@H]([C@H](OC(=O)c3ccccc3)[C@]3(O)C[C@H](OC(=O)[C@H](O)[C@@H](NC(=O)c4ccccc4)c4ccccc4)C(C)=C1C3(C)C)[C@]1(OC(C)=O)CO[C@@H]1C[C@@H]2O [PACLITAXEL] |  |  |  |  |  |  |  |  |  |  |  |  |  |  | HepSE_bilirubinemia ([1]; Liver): 0; HepSE_cholecystitis ([2]; Liver): 0; HepSE_cholelithiasis ([3]; Liver): 0; HepSE_cirrhosis ([4]; Liver): 0; HepSE_elevated liver function tests ([5]; Liver): 1; HepSE_hepatic failure ([6]; Liver): 0; HepSE_hepatic necrosis ([7]; Liver): 1; HepSE_hepatitis ([8]; Liver): 0; HepSE_hepatomegaly ([9]; Liver): 0; HepSE_jaundice ([10]; Liver): 0; HepSE_liver disease ([11]; Liver): 0; HepSE_liver fatty ([12]; Liver): 0; HepSE_liver function tests abnormal ([13]; Liver): 0; HepSE_Combined Scores ([14]; Liver): 2
4 | Cc1nc2n(c(=O)c1CCN1CCC(c3noc4cc(F)ccc34)CC1)CCCC2O (configuration not stated) [PALIPERIDONE] | 0 | 0 | 0 | 0 | 0 | 0 | 0 | 0 | 0 | 0 | 0 | 0 | 0 | 0 | 
5 | O=C1c2cccc3c2[C@H](CCC3)CN1[C@@H]1CN2CCC1CC2 [PALONOSETRON] | 0 | 0 | 0 | 0 | 0 | 0 | 0 | 0 | 0 | 0 | 0 | 0 | 0 | 0 | 
6 | NCCC(O)(P(=O)(O)O)P(=O)(O)O [PAMIDRONIC ACID] | 0 | 0 | 0 | 0 | 0 | 0 | 0 | 0 | 0 | 0 | 0 | 0 | 1 | 1 | 
7 | CC(=O)O[C@H]1C[C@@H]2CC[C@@H]3[C@H](CC[C@@]4(C)[C@H]3C[C@H]([N+]3(C)CCCCC3)[C@@H]4OC(C)=O)[C@@]2(C)C[C@@H]1[N+]1(C)CCCCC1 [PANCURONIUM] |  |  |  |  |  |  |  |  |  |  |  |  |  |  | HepSE_bilirubinemia ([1]; Liver): 0; HepSE_cholecystitis ([2]; Liver): 0; HepSE_cholelithiasis ([3]; Liver): 0; HepSE_cirrhosis ([4]; Liver): 0; HepSE_elevated liver function tests ([5]; Liver): 0; HepSE_hepatic failure ([6]; Liver): 0; HepSE_hepatic necrosis ([7]; Liver): 0; HepSE_hepatitis ([8]; Liver): 0; HepSE_hepatomegaly ([9]; Liver): 0; HepSE_jaundice ([10]; Liver): 0; HepSE_liver disease ([11]; Liver): 0; HepSE_liver fatty ([12]; Liver): 0; HepSE_liver function tests abnormal ([13]; Liver): 0; HepSE_Combined Scores ([14]; Liver): 0
8 | COc1ccnc(C[S+]([O-])c2nc3ccc(OC(F)F)cc3[nH]2)c1OC (configuration not stated) [PANTOPRAZOLE] | 1 | 1 | 1 | 0 | 0 | 1 | 0 | 1 | 0 | 1 | 0 | 0 | 1 | 7 | 
